Reference: the OligoGym collection
Values joined by “and” are separate entries in the source; they are usually repeats but may differ in a detail not shown here. Equal values may be shown once. HELM strings list units from the 5' end as sugar, base in round brackets, then linkage (d deoxyribose, r ribose, m 2'-O-methyl, p phosphodiester). Strings are as the collection lists them, not checked against the first reports. ss, as = sense and antisense strand; [lna] = locked nucleic acid (LNA); [hna] = hexitol nucleic acid; [fl2r] = 2'-fluoro

Details: siRNA
Note: test system not given here.

Substance	target mRNA knockdown
RNA1{m(A)p.r(U)p.m(C)p.r(G)p.m(U)p.r(C)p.m(G)p.r(U)p.m(C)p.r(A)p.m(G)p.r(G)p.m(G)p.m(U)p.r(A)p.m(A)p.r(G)p.m(G)p.r(U)p.r(T)p.r(T)}|RNA2{r(A)p.r(C)p.r(C)p.r(U)p.r(U)p.r(A)p.r(C)p.r(C)p.r(C)p.r(U)p.r(G)p.r(A)p.r(C)p.r(G)p.m(A)p.r(C)p.m(G)p.r(A)p.m(U)p.r(T)p.r(T)}$$$RNA1{StrandType:ss}|RNA2{StrandType:as}$	34%
RNA1{m(G)p.r(A)p.m(A)p.r(A)p.m(A)p.r(C)p.m(G)p.r(C)p.m(U)p.r(U)p.m(G)p.r(U)p.m(A)p.r(A)p.m(A)p.r(G)p.m(C)p.r(C)p.m(G)p.r(T)p.r(T)}|RNA2{r(C)p.r(G)p.r(G)p.r(C)p.r(U)p.r(U)p.r(U)p.m(A)p.r(C)p.m(A)p.m(A)p.r(G)p.r(C)p.r(G)p.r(U)p.r(U)p.r(U)p.r(U)p.r(C)p.r(T)p.r(T)}$$$RNA1{StrandType:ss}|RNA2{StrandType:as}$	23%
RNA1{m(G)p.r(A)p.m(U)p.r(U)p.m(C)p.r(C)p.m(A)p.r(A)p.m(A)p.r(C)p.m(C)p.r(C)p.m(C)p.r(A)p.m(C)p.r(U)p.m(A)p.r(U)p.m(C)p.r(T)p.r(T)}|RNA2{r(G)p.r(A)p.r(U)p.r(A)p.r(G)p.r(U)p.r(G)p.r(G)p.r(G)p.r(G)p.r(U)p.r(U)p.r(U)p.r(G)p.r(G)p.r(A)p.r(A)p.r(U)p.r(C)p.r(T)p.r(T)}$$$RNA1{StrandType:ss}|RNA2{StrandType:as}$	54%
RNA1{r(A)p.r(G)p.r(C)p.r(C)p.r(C)p.r(A)p.r(G)p.r(A)p.[fl2r](U)p.r(A)p.r(G)p.r(C)p.r(U)p.r(C)p.r(U)p.r(U)p.r(C)p.r(A)p.r(G)p.r(T)p.r(T)}|RNA2{r(C)p.r(U)p.r(G)p.r(A)p.r(A)p.r(G)p.r(A)p.r(G)p.r(C)p.[fl2r](U)p.r(A)p.r(U)p.r(C)p.r(U)p.r(G)p.r(G)p.r(G)p.r(C)p.r(U)p.r(T)p.r(T)}$$$RNA1{StrandType:ss}|RNA2{StrandType:as}$	69%
RNA1{r(G)p.r(A)p.r(C)p.r(G)p.r(U)p.r(A)p.r(A)p.r(A)p.r(C)p.r(G)p.r(G)p.r(C)p.r(C)p.r(A)p.r(C)p.r(A)p.r(A)p.r(G)p.r(U)p.[lna](T)p.[lna](C)}|RNA2{r(A)p.m(C)p.r(U)p.r(U)p.r(G)p.r(U)p.r(G)p.r(G)p.r(C)p.r(C)p.r(G)p.r(U)p.r(U)p.r(U)p.r(A)p.r(C)p.r(G)p.r(U)p.r(C)p.r(G)p.r(C)}$$$RNA1{StrandType:ss}|RNA2{StrandType:as}$	81%
RNA1{m(G)p.r(A)p.m(A)p.r(G)p.m(G)p.r(G)p.m(G)p.r(A)p.m(A)p.r(A)p.m(U)p.r(C)p.m(U)p.r(G)p.m(U)p.r(G)p.m(G)p.r(U)p.m(U)p.r(T)p.r(T)}|RNA2{r(A)p.r(A)p.r(C)p.r(C)p.r(A)p.r(C)p.r(A)p.r(G)p.r(A)p.r(U)p.r(U)p.r(U)p.r(C)p.r(C)p.r(C)p.r(C)p.r(U)p.r(U)p.r(C)p.r(T)p.r(T)}$$$RNA1{StrandType:ss}|RNA2{StrandType:as}$	41%
RNA1{r(C)p.r(G)p.r(G)p.r(G)p.r(U)p.r(A)p.r(C)p.r(G)p.r(A)p.r(G)p.r(C)p.r(C)p.r(G)p.r(G)p.r(A)p.r(A)p.r(C)p.r(C)p.r(U)p.r(T)p.r(T)}|RNA2{r(A)p.r(G)p.r(G)p.r(U)p.r(U)p.r(C)p.r(C)p.r(G)p.r(G)p.r(C)p.r(U)p.r(C)p.r(G)p.[fl2r](U)p.r(A)p.r(C)p.r(C)p.r(C)p.r(G)p.r(T)p.r(T)}$$$RNA1{StrandType:ss}|RNA2{StrandType:as}$	69%
RNA1{m(G)p.m(G)p.m(A)p.r(C)p.r(U)p.m(A)p.r(C)p.r(U)p.m(A)p.m(A)p.r(C)p.r(C)p.r(U)p.r(C)p.r(C)p.m(A)p.m(G)p.r(U)p.r(U)p.r(T)p.r(T)}|RNA2{r(A)p.r(A)p.r(C)p.r(U)p.r(G)p.r(G)p.r(A)p.r(G)p.r(G)p.r(U)p.r(U)p.r(A)p.r(G)p.r(U)p.r(A)p.r(G)p.r(U)p.r(C)p.r(C)p.r(T)p.r(T)}$$$RNA1{StrandType:ss}|RNA2{StrandType:as}$	65%
RNA1{m(U)p.r(U)p.m(A)p.r(A)p.m(G)p.r(G)p.m(A)p.r(G)p.m(A)p.r(A)p.m(G)p.r(C)p.m(U)p.r(G)p.m(A)p.r(C)p.m(G)p.r(G)p.m(C)p.r(T)p.r(T)}|RNA2{r(G)p.r(C)p.r(C)p.r(G)p.r(U)p.r(C)p.r(A)p.r(G)p.r(C)p.r(U)p.r(U)p.r(C)p.r(U)p.r(C)p.r(C)p.r(U)p.r(U)p.r(A)p.r(A)p.r(T)p.r(T)}$$$RNA1{StrandType:ss}|RNA2{StrandType:as}$	24%
RNA1{r(G)p.r(C)p.r(C)p.r(U)p.[fl2r](C)p.r(U)p.r(C)p.[fl2r](U)p.r(A)p.r(U)p.r(C)p.r(C)p.r(U)p.[fl2r](U)p.r(A)p.r(G)p.r(C)p.r(U)p.r(U)p.r(T)p.r(T)}|RNA2{r(A)p.r(A)p.r(G)p.r(C)p.[fl2r](U)p.r(A)p.r(A)p.r(G)p.r(G)p.r(A)p.[fl2r](U)p.r(A)p.r(G)p.r(A)p.r(G)p.r(A)p.r(G)p.r(G)p.r(C)p.r(T)p.r(T)}$$$RNA1{StrandType:ss}|RNA2{StrandType:as}$	47%
RNA1{r(U)p.m(U)p.r(A)p.r(A)p.r(G)p.r(G)p.r(A)p.r(G)p.r(A)p.r(A)p.r(G)p.r(C)p.r(U)p.r(G)p.r(A)p.r(C)p.r(G)p.r(G)p.r(C)p.r(T)p.r(T)}|RNA2{r(G)p.r(C)p.r(C)p.r(G)p.r(U)p.m(C)p.r(A)p.r(G)p.r(C)p.r(U)p.r(U)p.r(C)p.r(U)p.r(C)p.r(C)p.r(U)p.m(U)p.r(A)p.r(A)p.r(T)p.r(T)}$$$RNA1{StrandType:ss}|RNA2{StrandType:as}$	83%
RNA1{r(A)p.r(A)p.r(G)p.r(G)p.r(A)p.r(C)p.r(C)p.m(U)p.r(A)p.r(G)p.r(A)p.r(G)p.r(G)p.r(A)p.r(G)p.r(U)p.m(C)p.m(A)p.r(C)p.r(T)p.r(T)}|RNA2{r(G)p.m(U)p.r(G)p.r(A)p.r(C)p.r(U)p.r(C)p.r(C)p.r(U)p.r(C)p.m(U)p.r(A)p.r(G)p.r(G)p.r(U)p.r(C)p.r(C)p.r(U)p.r(U)p.r(T)p.r(T)}$$$RNA1{StrandType:ss}|RNA2{StrandType:as}$	78%
RNA1{r(G)p.r(A)p.r(G)p.r(A)p.r(G)p.r(A)p.r(G)p.r(A)p.r(C)p.r(G)p.r(G)p.r(U)p.r(G)p.r(G)p.r(A)p.r(A)p.r(G)p.r(A)p.r(A)p.r(T)p.r(T)}|RNA2{r(U)p.r(U)p.r(C)p.r(U)p.r(U)p.r(C)p.r(C)p.m(A)p.r(C)p.r(C)p.r(G)p.r(U)p.r(C)p.r(U)p.r(C)p.r(U)p.r(C)p.r(U)p.r(C)p.r(T)p.r(T)}$$$RNA1{StrandType:ss}|RNA2{StrandType:as}$	74%
RNA1{r(G)p.r(A)p.r(A)p.r(A)p.r(C)p.m(U)p.m(G)p.r(G)p.m(U)p.r(A)p.r(C)p.m(U)p.r(U)p.r(U)p.r(C)p.r(C)p.r(C)p.r(C)p.r(C)p.r(T)p.r(T)}|RNA2{r(G)p.r(G)p.r(G)p.r(G)p.r(G)p.r(A)p.r(A)p.r(A)p.r(G)p.m(U)p.r(A)p.r(C)p.m(C)p.m(A)p.r(G)p.r(U)p.r(U)p.r(U)p.r(C)p.r(T)p.r(T)}$$$RNA1{StrandType:ss}|RNA2{StrandType:as}$	85%
RNA1{r(C)p.r(U)p.r(U)p.r(A)p.r(C)p.r(G)p.r(C)p.r(U)p.r(G)p.r(A)p.r(G)p.r(U)p.r(A)p.r(C)p.r(U)p.r(U)p.r(C)p.r(G)p.r(A)p.r(T)p.r(T)}|RNA2{r(T)p.r(C)p.r(G)p.r(A)p.r(A)p.r(G)p.r(U)p.r(A)p.r(C)p.[lna](T)p.r(C)p.r(A)p.r(G)p.r(C)p.r(G)p.r(U)p.r(A)p.r(A)p.r(G)p.[lna](T)p.[lna](T)}$$$RNA1{StrandType:ss}|RNA2{StrandType:as}$	60%
RNA1{m(A)p.r(A)p.m(A)p.r(G)p.m(G)p.r(G)p.m(G)p.r(A)p.m(G)p.r(U)p.m(U)p.r(G)p.m(C)p.r(U)p.m(G)p.r(G)p.m(A)p.r(A)p.m(G)p.r(T)p.r(T)}|RNA2{r(C)p.r(U)p.r(U)p.r(C)p.r(C)p.r(A)p.r(G)p.r(C)p.m(A)p.m(A)p.r(C)p.r(U)p.r(C)p.r(C)p.r(C)p.r(C)p.r(U)p.r(U)p.r(U)p.r(T)p.r(T)}$$$RNA1{StrandType:ss}|RNA2{StrandType:as}$	47%
RNA1{r(U)p.r(C)p.r(C)p.r(U)p.r(A)p.r(C)p.r(A)p.r(G)p.r(C)p.r(A)p.r(C)p.r(A)p.r(A)p.r(C)p.r(A)p.r(A)p.r(A)p.r(U)p.r(G)p.d(U)p.d(G)}|RNA2{r(C)p.r(A)p.r(U)p.r(U)p.r(U)p.r(G)p.r(U)p.r(U)p.r(G)p.r(U)p.r(G)p.r(C)p.r(U)p.r(G)p.r(U)p.r(A)p.r(G)p.r(G)p.r(A)p.d(T)p.d(T)}$$$RNA1{StrandType:ss}|RNA2{StrandType:as}$	54%
RNA1{r(G)p.r(A)p.r(C)p.r(G)p.[hna](U)p.r(A)p.r(A)p.[hna](A)p.r(C)p.r(G)p.[hna](G)p.r(C)p.r(C)p.[hna](A)p.r(C)p.r(A)p.r(A)p.r(G)p.r(U)p.[hna](U)p.d(T)}|RNA2{r(A)p.r(C)p.r(U)p.r(U)p.r(G)p.r(U)p.r(G)p.r(G)p.r(C)p.r(C)p.r(G)p.r(U)p.r(U)p.r(U)p.r(A)p.r(C)p.r(G)p.[hna](U)p.[hna](C)p.[hna](G)p.d(T)}$$$RNA1{StrandType:ss}|RNA2{StrandType:as}$	48.7%
RNA1{r(G)p.r(A)p.r(A)p.m(U)p.r(A)p.r(A)p.r(C)p.r(C)p.m(U)p.r(G)p.r(A)p.r(A)p.r(C)p.r(G)p.r(U)p.m(C)p.r(A)p.r(C)p.r(C)p.r(T)p.r(T)}|RNA2{r(G)p.r(G)p.m(U)p.r(G)p.r(A)p.r(C)p.r(G)p.r(U)p.r(U)p.m(C)p.r(A)p.r(G)p.r(G)p.r(U)p.m(U)p.r(A)p.r(U)p.r(U)p.r(C)p.r(T)p.r(T)}$$$RNA1{StrandType:ss}|RNA2{StrandType:as}$	51% and 69%
RNA1{r(A)p.r(G)p.r(A)p.r(G)p.r(A)p.r(A)p.r(G)p.r(G)p.r(G)p.[fl2r](C)p.r(G)p.r(U)p.r(C)p.r(U)p.r(C)p.[fl2r](U)p.r(A)p.[fl2r](C)p.r(A)p.r(T)p.r(T)}|RNA2{[fl2r](U)p.r(G)p.[fl2r](U)p.r(A)p.r(G)p.r(A)p.r(G)p.r(A)p.r(C)p.r(G)p.r(C)p.r(C)p.r(C)p.r(U)p.r(U)p.r(C)p.r(U)p.r(C)p.r(U)p.r(T)p.r(T)}$$$RNA1{StrandType:ss}|RNA2{StrandType:as}$	71%
